Source: patent US20100125103A1 (TG BIOTECH CO. LTD., priority 2008, published 2010)
Entries after “also recorded” stand apart in the source; their conditions may differ.

Key:
[1] = Solubility (Table 1); type: physicochemical; settings: for Solubility Insoluble: solvents in which the compound is insoluble; for Solubility Soluble: solvents in which the compound is soluble
Protocol: Each of the compounds prepared by Examples 1 to 7 were subjected to UV absorbance analysis, IR(infrared) absorbance analysis and high resolution mass spectrometry analysis so as to determine the molecular weight and formula of the purified compound. Specifically, UV absorbance analysis was carried out by UV-265 spectrophotometer (Shimadzu), IR absorbance analysis was carried out by FTS-80 spectrophotometer (Bio-Rad Digilab Division), and the molecular weight and formula were determined through High resolution MS analysis by using VG70-SEQ mass spectrometry. Also, a nuclear magnetic resonance device (Varian 300, 500 NMR) was used to obtain ^1H, ^13C-NMR spectrum, and the spectrum was synthetically analyzed to determine the structure.

[2] = system: diabetic db/db mice; assay: Blood glucose level in db/db mice; type: in vivo; settings: for reduced extent of blood glucose level compared to control / blood glucose level: 10 mg/kg oral
Protocol: In order to measure the blood glucose level in db/db mice through treatment of the compounds obtained from Examples, the effects of the compounds were measured by using a method described in the reference (Halseth A E et al, Biochem Biophys Res Commun. 294, […], 2002).
Meanwhile, to a control group, the same volume of saline solution orally administered for 4 weeks. Then, the change in blood glucose level of the mice was recorded.

Row | Solubility Insoluble [1] | Solubility Soluble [1] | Compound | also measured
1 | Water | Alcohol, and DMSO | C/C=C/c1ccc(Oc2cc(/C=C/C)cc(OC(C)=O)c2OC(C)=O)cc1 [Example 7, 1-(4-((E)-prop-1-enyl)phenoxy)-2,3-diacetyloxy-5-((E)-prop-1-enyl)benzene] | –
2 | Water | Alcohol, and DMSO | CCCc1ccc(Oc2cc(CCC)cc(O)c2O)cc1 [Example 2, 3-(4-propylphenoxy)-5-propylbenzene-1,2-diol] | –
3 | Water | Alcohol, and DMSO | C/C=C/c1ccc(Oc2cc(/C=C/C)cc(O)c2O)cc1 [Example 5, 3-(4-((E)-prop-1-enyl)phenoxy)-5-((E)-prop-1-enyl)benzene-1,2-diol] | –
4 | Water | Alcohol, and DMSO | CCCc1ccc(Oc2cc(CCC)cc(OC(C)=O)c2OC(C)=O)cc1 [Example 4, 1-(4-propylphenoxy)-2,3-diacetyloxy-5-propylbenzene] | –
5 | – | – | obovatol [Example 1] | change in blood glucose level compared to the control group ([2]; 5 mg/kg oral, 4 weeks): did not show a significant change; reduced extent of blood glucose level compared to control ([2]; after 1 week): 39.6%; blood glucose level ([2]; after 1 week (control 390.25±44.1)): 235.75±20.9; reduced extent of blood glucose level compared to control ([2]; after 2 weeks): 29.2%; blood glucose level ([2]; after 2 weeks (control 419.75±28.8)): 297.25±29; reduced extent of blood glucose level compared to control ([2]; after 3 weeks): 52.7%; blood glucose level ([2]; after 3 weeks (control 495±86.2)): 234±61.5; reduced extent of blood glucose level compared to control ([2]; after 4 weeks): 55.2%; blood glucose level ([2]; after 4 weeks (control 522±78)): 288±27.6
6 | Hexane,; also recorded: Water | Alcohol, and DMSO | CCCc1ccc(Oc2cc(CCC)cc(O)c2OC)cc1 [Example 3, 3-(4-propylphenoxy)-2-methoxy-5-propylphenol] | –
